# From patent US8580789B2, “Treating glaucoma” (The Cleveland Clinic Foundation, priority 2007, dated 2013)
# Tests used:
# [1] = test system: cortical neurons; details: cited from earlier work; for Protection of neurons from the neurotoxic effect of 3-deoxyglucosone and methylglyoxal: cotreatment with aminoguanidine, pretreatment with N-acetylcysteine
# [2] = test system: internal limiting membrane of the retina; details: direct application; white light for 3 minutes; cited from earlier work
# [3] = test system: porcine corneas; assay: Corneal surface wave elastometry after standard crosslinking or flash-linking; details: group 1
# Protocol: To investigate comparative cornea stiffness values in porcine corneas after standard crosslinking and a new, rapid method of crosslinking (flash-linking) using surface wave elastometry (Sonic Eye, PriaVision Inc, Menlo Park, Calif.).
# Six porcine eyes were treated using a UVA double diode with 4.2 mW/cm2 UVA at 370 nm while applying 0.1% riboflavin-5-phosphate drops to the central cornea every 5 minutes as a photosensitizer for 30 min (group 1). The next 6 porcine corneas were treated with a single application of a customized photoactive crosslinking agent (PriaVision Inc) and 30 seconds of UVA light at the same power and wavelength (group 2). Following both experimental treatments, the Sonic Eye system was used to measure ultrasound surface wave propagation time between two fixed-distance transducers applied to the cornea along central horizontal and vertical positions. Intraocular pressure was continuously monitored using a digital pressure monitor display (Infinity SC9000XL, Drager medical, Lubeck, Germany) after vitreous chamber cannulation with a 23-gauge needle.
# [4] = test system: retinal ganglion cells; details: by inhibiting nitric oxide synthase; cited from earlier work
# [5] = test system: human LC; details: strips incubated in 0.5 M agent over 5 days; cited from earlier work
# [6] = test system: porcine sclera; details: scleral strips; 1 hour glutaraldehyde, 5 days glyceraldehydes, 30 minutes UVA for riboflavin/UVA; cited from earlier work
# [7] = test system: human sclera; details: scleral strips; 1 hour glutaraldehyde, 5 days glyceraldehydes, 30 minutes UVA for riboflavin/UVA; cited from earlier work
# [8] = test system: human PS; details: strips incubated in 0.5 M agent over 5 days; cited from earlier work
# [9] = test system: rabbit eyes; details: 370 nm light at 4.2 mW/cm2; cited from earlier work
# [10] = test system: peripapillary sclera; assay: Surface wave velocity (stiffness) of the peripapillary sclera of whole globes, Sonic Eye elastometer; parameters: species or system porcine; details: riboflavin 1% + UVA 30 min
# Protocol: (§1) Surface wave velocity (SWV) is a measure of tissue stiffness, and is performed by detecting the velocity of an ultrasonic wave between 2 points (Sonic Eye, Priavision, Menlo Park, Calif.) (Dupps W J, et al., J Refract Surg; 23: 66-75 (2007)). 19 porcine eyes were divided into 2 groups. In group 1 (6 eyes), the SWV across the exposed optic nerve/lamina cribrosa complex (ON/LCC) was initially measured at the eyes' physiologic IOP and at 100 mmHg. The porcine globes were cannulated with IV tubing to facilitate the change in IOP. In group 2 (13 eyes), the pre-treatment SWV was measured across the same region and atop the peri-papillary sclera, after which both regions were treated with riboflavin 1%, Q 5 min×6, and UVA irradiation (˜365 nm at 3 mW/cm^2) for 30 min per eye. The SWV was then re-measured in each eye at the pre-treatment IOP and at 100 mmHg.
# (§2) An annular sponge soaked in GTA was exposed to the peripapillary sclera for ˜30 minutes, and not the ON/LCC. Measurements were repeated as above, but also along each quadrant of peripapillary sclera to ensure uniformity and symmetry of crosslinking around the ON/LCC. The results are summarized as follows:
# (§3) Eighteen porcine globes were divided evenly into 3 groups. The optic nerves were transected to expose the ON/LC, and each globe was infused through an in-line pressure transducer for direct IOP control. Surface wave velocity, a non-destructive measure of tissue stiffness, was measured across the ON/LC and PS before and after collagen crosslinking at IOP of 10 and 30 mmHg (groups 1 and 2) and at each globe's preinflation IOP and 80 mmHg (group 3). In group 3, papillary strain was measured by analyzing the displacement of fiducial marks immediately adjacent to the ON/LC using digital photography.
# (§4) Surface wave velocity (SWV) is a measure of tissue stiffness that has been used in dermatologic applications to measure age-related changes (Potts R O, et al., J Invest Dermatol.; 82(1):97-100 (1984); Potts R O, et al., J Biomech.; 16(6):365-372 (1983); Davis B R, et al., Exp Gerontol; 24(3):201-210 (1989)), softening effects of tissue hydration and skin creams (Vexler A, et al., J Invest Dermatol; 113(5):732-739 (1999)), and sclerosing effects of radiation on breast skin (Gorodetsky R, et al., Int J Radiat Oncol Biol Phys.; 45(4):893-900 (1999)). When acoustic waves in the 0.5 to 30 kHz frequency range are used, propagation speed in skin is related to the density and stiffness of the tissue (Pereira J M, et al., J Biomech.; 23(8):745-751 (1990)). A prototype handheld ocular surface elastometer (Sonic Eye, Priavision, Menlo Park, Calif.) with an operating frequency within this range (4 kHz) and a fixed 4.5 mm wave propagation distance has been described in detail elsewhere (Dupps W J Jr, et al., J Refract Surg.; 23(1):66-75 (2007)). The Sonic Eye was used in this study as a non-destructive means of measuring local in situ tissue stiffness across and around the optic nerve head.
# Eighteen porcine eyes were obtained from a local abattoir (Heffelfingers Meats, Inc., Jeromesville, Ohio) and were used within 24 hours postmortem. The optic nerves were dissected under microscopic visualization to expose the ON/LC (FIG. 1). […] Replicate SWV measurements were obtained at a rate of 1 per second with a triggering foot pedal to produce at least 5 measurements that were subsequently averaged for each region of interest. A PC software interface converted the time-of-flight data to velocity in meters per second (m/s), and the velocity data were exported to Excel (v. 11, SP2; Microsoft Corp, Redmond, Wash.) and Minitab (v. 14.20; Minitab Inc, State College, Pa.) for statistical analysis.
# (§5) Three experimental groups of 6 eyes each were defined. In group 1, SWV across the optic nerve/lamina cribrosa complex and peripapillary scleral regions of interest were measured at 10 and 30 mmHg to represent a physiological range of pressures. […]
# [11] = test system: keratoconus; details: topical riboflavin with UVA light exposure; cited from earlier work
# [12] = test system: optic nerve/lamina cribrosa complex; assay: Surface wave velocity (stiffness) across the optic nerve/lamina cribrosa complex of whole globes, Sonic Eye elastometer; parameters: species or system porcine; details: Example 1 group 2
# Protocol: as §1, §2, §3, §4
# Eighteen porcine eyes were obtained from a local abattoir (Heffelfingers Meats, Inc., Jeromesville, Ohio) and were used within 24 hours postmortem. The optic nerves were dissected under microscopic visualization to expose the ON/LC (FIG. 1). […]
# as §5
smiles,measurement,setting,value
O=CC(=O)C[C@H](O)[C@H](O)CO [3-deoxyglucosone],Neurotoxic effect to cortical neurons,[1],neurotoxic effect
"CC1(C)C(/C=C/C=C/C=C/C=C2\N(CCCCS(=O)(=O)O)c3ccc4ccccc4c3C2(C)C)=[N+](CCCCS(=O)(=O)[O-])c2ccc3ccccc3c21 [ICG, indocyanine green]",Stiffness of the internal limiting membrane of the retina,[2],increase the stiffness
CC(=O)N[C@@H](CS)C(=O)O [N-acetylcysteine],Protection of neurons from the neurotoxic effect of 3-deoxyglucosone and methylglyoxal,[1],protected the neurons
"Cc1cc2nc3c(=O)[nH]c(=O)nc-3n(C[C@H](O)[C@H](O)[C@H](O)COP(=O)(O)O)c2cc1C [UVA+riboflavin, riboflavin-5-phosphate]",Mean surface wave velocity of cornea after crosslinking,"[3]; 0.1% riboflavin-5-phosphate drops every 5 min, UVA 4.2 mW/cm2 370 nm 30 min",111.35±2.16 m/s
same,Increase of mean surface wave velocity of cornea after crosslinking,"[3]; from 93.6 to 111.3 m/s, p=0.032",17.7 units
N=C(N)NN [aminoguanidine],Neuroprotective effect to retinal ganglion cells,[4],neuroprotective effect
same,Protection of neurons from the neurotoxic effect of 3-deoxyglucosone and methylglyoxal,[1],protected the neurons
"O=CC(O)CO (stereo not shown) [glyceraldehydes, glyceraldehyde]",Increase of stress with 20% strain of human LC,[5],> 1.5 fold
same,Rise in porcine scleral stress (rigidity),[6],5 ×
same,Rise in human scleral stress (rigidity),[7],34%
same,Increase of stress with 20% strain of human PS,[8],> 2 fold
CC(=O)C=O [methylglyoxal],Increase of stress with 20% strain of human LC,[5],> 2 fold
same,Increase of stress with 20% strain of human PS,[8],> 3 fold
"Cc1cc2nc3c(=O)[nH]c(=O)nc-3n(C[C@H](O)[C@H](O)[C@H](O)CO)c2cc1C [riboflavin/UVA, riboflavin]",Retinal cell death after riboflavin and irradiation,[9],"retinal pigment epithelium (RPE), photoreceptor and outer nuclear layer death"
same,Rise in porcine scleral stress (rigidity),[6],1.5 ×
same,Rise in human scleral stress (rigidity),[7],29%
same,SWV of the peripapillary sclera after crosslinking at 100 mmHg,"[10]; Example 1 group 2, IOP 100 mmHg",63.5±1.8 m/s
same,SWV (stiffness) of the peripapillary sclera after crosslinking,"[10]; Example 1 group 2, pre-treatment IOP, mean±SD",55.7±1.5 m/s
same,"Stiffness of Peripapillary Sclera, Post-crosslinking Mean ± SD","[10]; Example 3 Group 1, Low IOP 10 mmHg",85.5 ± 13.5 m/s
same,Clinical effect in keratoconus,[11],used effectively as a stabilizing treatment for keratoconus
same,Change of SWV of the ON/LCC upon raising the IOP to 100 mmHg after crosslinking,"[12]; riboflavin 1% + UVA 30 min, p=0.1",no change
same,SWV (stiffness) of the ON/LCC after crosslinking,"[12]; riboflavin 1% Q 5 min x6 + UVA ~365 nm 3 mW/cm^2 30 min to ON/LCC and PS, pre-treatment IOP, mean±SD",32.8±1.1 m/s
